Series [1] has as its system endoplasmic reticulum stress response (EUA activity) in 293A transformed cells. Briefly: Endoplasmic reticulum stress reporter (10×ERSE2-10×UPRE-5×AARE-EGFP) fluorescence under Tunicamycin. The class given is cell-based. To be noted: for inhibition at 5 µM: 293A, read-out: Endoplasmic reticulum stress inhibition rate (Z)%; for Suppression of EUA activity (endoplasmic reticulum stress response activation) caused by Tunicamycin: FIG. 5.

The test system of series [2] is 293A transformed cell line. Briefly: Intracellular ATP level (viability) of Tm-treated 293A transformed cell line. It is filed as cell-based. To be noted: Tm treatment; 43 hours; FIG. 9. Here is the method:
(§1) Intracellular ATP level or activity of lactate dehydrogenase (LDH), which is released from cells that have been damaged in the cell membrane, were measured in order to confirm the effect of Compound No. 1 against cell growth or cytotoxicity. […] Each were measured using an ATP assay kit (Promega, Celltiter-glo) and LDH activity measurement kit (Dojindo, Cytotoxicity LDH Assay Kit-WST) using a multiplate reader, Cytation 3 (Bio-Tek) according to the protocols of the kits (number of tests n=4).

For series [3], the system named is 293A transformed cell line. Put plainly: Lactate dehydrogenase (LDH) release (cytotoxicity) of Tm-treated 293A transformed cell line. The settings on record: 43 hours, FIG. 10. The class given is cell-based. Here is the method: as §1
Series [4] has as its system 293A transformed cell line. The settings on record: FIG. 8; for Cell proliferation on treatment with the stress inducer / cytotoxic compound alone: no test compound added.
Method: It is noted that in addition to Tm, camptothecin (CPT) was also used as a compound to confer cytotoxicity, and this was used as a positive control for cell death. Cell proliferation rate was determined by obtaining bright field images using a high content confocal imaging system (PerkinElmer, Operetta CLS) at intervals of 4 hours after starting the experiment, and calculating cell density from the bright field image using an image analysis software Harmony (PerkinElmer).
[5] abbreviates: Compound concentration: 5 μM, Tm-induced, EGFP fluorescence.

On to `CCN(CC)CCCNC(=O)c1ccc2c(c1)sc1nc(-c3ccc(OC)cc3)cn12` [compound 6], for which, in series [1] (setting [5]), the inhibition at 5 µM was 93%.

For `CCCC(=O)NCCc1csc(-c2ccc(Cl)cc2)n1` [Azoramide], the “Suppression of EUA activity (endoplasmic reticulum stress response activation) caused by Tunicamycin” value (from here on “Suppression of EUA activity”) in series [1] (40 μM) is “had an inhibitory effect”. The “Endoplasmic reticulum stress inhibition rate (Z)%” value in series [1] (setting [5]) is recorded as 0%. The “Intracellular ATP level recovered, % of that of UT cells” value in series [2] is reported as “approximately 75%”. Further, the “LDH activity increased by Tm treatment, decreased to % of that of UT cells” value in series [3] is “approximately 50%”. Also, the “Cell proliferation recovered, % of that of UT cells” value in series [4] (40 μM, 0.2 μg/mL Tm) is “approximately 58%”.

Regarding Tunicamycin [Tm], the “Cell proliferation on treatment with the stress inducer / cytotoxic compound alone” value in series [4] is recorded as “almost completely inhibited”.

`Fc1ccccc1-c1cn2c(n1)sc1ccccc12` [compound 5]: in series [1] (setting [5]), the inhibition at 5 µM is 79%.

For `Cc1ccc(-c2cn3c(n2)sc2cc(C(=O)NCCCN4CCCCC4C)ccc23)cc1` (centres unmarked) [compound 7], the inhibition at 5 µM in series [1] (setting [5]) was 95%.

As for `O=C([O-])CCCc1ccccc1.[Na+]` [4PBA, Sodium 4-phenylbutyrate, reference compound], in series [1] (setting [5]), the inhibition at 5 µM turned out to be 0%. The “Suppression of EUA activity” value in series [1] (concentration not given) is recorded as “could not suppress”.

Take `CS(=O)(=O)c1ccc2c(c1)sc1nc(-c3ccccc3Cl)cn12` [compound 12]: the inhibition at 5 µM in series [1] (setting [5]) amounted to 54%.

Regarding `CCN(CC)CCCNC(=O)c1ccc2c(c1)sc1nc(-c3ccccc3)cn12` [compound 9], the inhibition at 5 µM in series [1] (setting [5]) was determined as 61%.

Take `Clc1ccc(-c2cn3c(n2)sc2ccccc23)cc1` [compound 3]: the inhibition at 5 µM in series [1] (setting [5]) came out at 101%.

`COc1cccc(-c2cn3c(n2)sc2cc(C(=O)NCCCN4CCOCC4)ccc23)c1` [compound 8]: the inhibition at 5 µM in series [1] (setting [5]) is 98%.

For the compound `CCc1ccc(-c2cn3c(n2)sc2cc(C(=O)OC)ccc23)cc1` [compound 4], the inhibition at 5 µM in series [1] (setting [5]) came to 99%.

Turning to `C[C@H](CCC(=O)NCCS(=O)(=O)O)[C@H]1CC[C@H]2[C@@H]3[C@@H](O)C[C@@H]4C[C@H](O)CC[C@]4(C)[C@H]3CC[C@]12C` [TUDCA, Tauroursodeoxycholic Acid, reference compound], the inhibition at 5 µM in series [1] (setting [5]) was 0%. The “Suppression of EUA activity” value in series [1] (concentration not given) is listed as “could not suppress”.

Take `O=C(NCCCN1CCCCC1)c1ccc2c(c1)sc1nc(-c3ccccc3)cn12` [compound 10]: the inhibition at 5 µM in series [1] (setting [5]) turned out to be 41%.

As to `COC(=O)c1ccc2c(c1)sc1nc(-c3ccccc3)cn12` [compound 2], the inhibition at 5 µM in series [1] (setting [5]) was determined as 100%.

As to `CC[C@@]1(O)C(=O)OCc2c1cc1n(c2=O)Cc2cc3ccccc3nc2-1` [camptothecin], the “Cell proliferation on treatment with the stress inducer / cytotoxic compound alone” value in series [4] is “almost completely inhibited”.

Take `CCOC(=O)C1CCN(C(=O)c2ccc3c(c2)sc2nc(-c4ccc(OC)cc4)cn23)CC1` [compound 13]: in series [1] (setting [5]), the inhibition at 5 µM is 60%.

With `Cc1ccc(-c2cn3c(n2)sc2cc(C(=O)NCCCN4CCOCC4)ccc23)cc1` [compound 11], the inhibition at 5 µM in series [1] (setting [5]) turned out to be 66%.

The term inhibition denotes the drop in the measured response relative to a control, in per cent.

(Values after patent publication US11559518B2, “Endoplasmic reticulum stress regulator comprising benzothiazoimidazolyl compound” (ER Stress Research Institute, Inc., priority 2017, dated 2023).)
